Measured values: publication PMC9650428, “Mutagenesis and functional analysis of SotB: A multidrug transporter of the major facilitator superfamily from Escherichia coli” (Frontiers in Microbiology, 2022)
Positions count from the first letter of the chain named.

Columns and labels:
[1] = target: T1, SotB W119A (Escherichia coli, UniProt P31122, W119A); test: SPR affinity assay, SotB variant W119A; conditions: read-out: KD, binding affinity with W119A
T1 construct: The full-length sotB and lapC genes from the E. coli MG1655 genome were subcloned into the cloning vector pET28a; 8xHis (C); made in house; host or cells: E. coli C43(DE3)
T1 sequence (P31122 1-396 W119A): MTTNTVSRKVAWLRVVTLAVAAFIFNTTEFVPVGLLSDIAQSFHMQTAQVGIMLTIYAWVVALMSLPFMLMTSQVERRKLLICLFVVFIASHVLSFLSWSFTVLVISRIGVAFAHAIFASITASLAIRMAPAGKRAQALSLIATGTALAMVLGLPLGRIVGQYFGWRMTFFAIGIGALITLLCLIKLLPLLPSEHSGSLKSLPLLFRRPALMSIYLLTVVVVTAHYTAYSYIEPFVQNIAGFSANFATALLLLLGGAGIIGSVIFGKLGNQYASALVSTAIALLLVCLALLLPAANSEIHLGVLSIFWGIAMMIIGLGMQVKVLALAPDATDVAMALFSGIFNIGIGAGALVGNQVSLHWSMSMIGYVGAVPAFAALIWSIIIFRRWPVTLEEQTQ
Procedure: The instrument used in surface plasmon resonance (SPR) affinity assays was OpenSPR (Nicoya, Canada) and the chip used was COOH sensor chip (Nicoya, Canada). SotB and its variants were as ligands. IPTG, L-arabinose, D-xylose, D-glucose, D-fructose, and D-mannose were as small molecules. Using HSB-EP buffer (10 mM HEPES, 150 mM NaCl, 3 mM EDTA, 0.005% Tween-20, pH7.4) as test buffer and setting flow rate 150 μl/min after installed COOH chip according to OpenSPRTM instrument standard operating procedure. After the signal baseline was reached, loading 200 μl 80% isopropyl alcohol and ran for 10 s to drain bubbles. After reaching baseline, the sample ring was rinsed with HSB-EP buffer and emptied with air. After the signal reached the baseline, loading 200 μl EDC (400 mM, Sigma)/NHS (100 mM, Sigma; 1:1) solution with a flow rate 20 μl/min for 4 min. Then, loading 200 μl ligand (SotB/SotB variants) diluted by the activation buffer (sodium acetate, 10 mM, pH3.5) and ran for 4 min (20 μl/min). Then the sample ring was rinsed with HSB-EP buffer and emptied with air. Loading 200 μl 1 M ethanolamine (Sigma) blocking solution (20 μl/min, 4 min), rinsed the sample ring with HSB-EP buffer, and emptied the sample ring with air. Observing baseline for 5 min to ensure stability. […]

[2] = system: intact E. coli MG1655 strain; test: Growth curve (L-arabinose inhibition / D-xylose competition) assay, intact MG1655; assay type: cell-based, Escherichia coli
Description: In the process of sotB gene knockout, two plasmids were introduced into E. coli MG1655 strain: the plasmid pEcCas expressing Cas9 protein (kanamycin resistance) and the plasmid pEcgRNA/sotB expressing related gRNA (spectinomycin resistance). The pEcCas plasmid was successfully eliminated in this study. […] Thus, the sotB-deletion strain has resistance to spectinomycin. In order to carry out the related L-arabinose inhibition assay more strictly, the same plasmid (pEcgRNA/sotB) was then transformed into intact E. coli MG1655 cells, and the growth conditions of the two strains were measured as follows: The E. coli MG1655 cells (intact cells and sotB-deletion cells) were grown in liquid LB medium containing spectinomycin (50 μg/ml) at 37°C for overnight. The cells were then diluted to an OD600 value of 0.8 with liquid LB medium containing spectinomycin (50 μg/ml). Then, the cells were further diluted 1,000 times with liquid LB medium containing spectinomycin (50 μg/ml). The diluted cells were added to a 96-well plate (200 μl/well). Then, L-arabinose was added with final concentrations of 0 μM, 10 μM, 100 μM, 1 mM, 10 mM, and 100 mM, respectively. The 96-well plate was incubated at 37°C, and the OD600 value was measured every 1 h with a microplate reader. For the competition assay, the intact MG1655 cells diluted 1,000 times were divided into two parts and then added into 96-well plate (200 μl/well). One part was directly added with D-xylose at a final concentration of 0, 1, and 10 mM, respectively; the other part was first added with L-arabinose at a final concentration of 10 mM, then D-xylose was added with final concentrations of 0, 1, and 10 mM, respectively. The method of growth curve measurement is the same as above. All the experiments were repeated at least three times.

[3] = target: T2, SotB H115A (Escherichia coli, UniProt P31122, H115A); test: SPR affinity assay, SotB variant H115A; assay type: binding
T2 construct: The full-length sotB and lapC genes from the E. coli MG1655 genome were subcloned into the cloning vector pET28a; 8xHis (C); made in house; host or cells: E. coli C43(DE3)
T2 sequence (P31122 1-396 H115A): T1 sequence (P31122 1-396 W119A) with H115A, A119W
Procedure: (§1) The instrument used in surface plasmon resonance (SPR) affinity assays was OpenSPR (Nicoya, Canada) and the chip used was COOH sensor chip (Nicoya, Canada). SotB and its variants were as ligands. IPTG, L-arabinose, D-xylose, D-glucose, D-fructose, and D-mannose were as small molecules. Using HSB-EP buffer (10 mM HEPES, 150 mM NaCl, 3 mM EDTA, 0.005% Tween-20, pH7.4) as test buffer and setting flow rate 150 μl/min after installed COOH chip according to OpenSPRTM instrument standard operating procedure. After the signal baseline was reached, loading 200 μl 80% isopropyl alcohol and ran for 10 s to drain bubbles. After reaching baseline, the sample ring was rinsed with HSB-EP buffer and emptied with air. After the signal reached the baseline, loading 200 μl EDC (400 mM, Sigma)/NHS (100 mM, Sigma; 1:1) solution with a flow rate 20 μl/min for 4 min. Then, loading 200 μl ligand (SotB/SotB variants) diluted by the activation buffer (sodium acetate, 10 mM, pH3.5) and ran for 4 min (20 μl/min). Then the sample ring was rinsed with HSB-EP buffer and emptied with air. Loading 200 μl 1 M ethanolamine (Sigma) blocking solution (20 μl/min, 4 min), rinsed the sample ring with HSB-EP buffer, and emptied the sample ring with air. Observing baseline for 5 min to ensure stability. The small molecules were diluted with PBS buffer (2 mM of KH2PO4, 10 mM of Na2HPO4, 2.7 mM of KCl, and 137 mM of NaCl at pH 7.4), and the concentration was shown in the experimental results. The flow rate for small molecules was performed at 20 μl/min. The binding time of small molecule and ligand was 240 s, and the dissociation was 240 s. The analysis software used for the experimental results was TraceDrawer, and the analysis method was one-to-one analysis model.

[4] = target: T3, SotB N343A (Escherichia coli, UniProt P31122, N343A); test: SPR affinity assay, SotB variant N343A; assay type: binding
T3 construct: The full-length sotB and lapC genes from the E. coli MG1655 genome were subcloned into the cloning vector pET28a; 8xHis (C); made in house; host or cells: E. coli C43(DE3)
T3 sequence (P31122 1-396 N343A): T1 sequence (P31122 1-396 W119A) with A119W, N343A
Procedure: as §1

## OC1OC[C@H](O)[C@H](O)[C@H]1O (mixture of isomers) [L-arabinose]
[1]
  Kd: 4.9 mM
[2]; in the presence of 1 mM L-arabinose
  Growth of intact MG1655 compared to sotB-deletion MG1655: grew better
[2]; intact MG1655, 10 mM final concentration
  Effect on growth (OD600 growth curve): significantly inhibit
[2]; intact MG1655, 100 mM final concentration
  Effect on growth (OD600 growth curve): significantly inhibit
[3]; H115A vs wild-type SotB
  Binding affinity of H115A, fold lower than the wild-type protein: 3.2 fold
[3]; SotB variant H115A, read-out: KD, binding affinity with H115A
  Kd: 13.3 mM
[4]; N343A vs wild-type SotB
  Binding affinity of N343A, fold lower than the wild-type protein: 3.5 fold
[4]; SotB variant N343A, read-out: KD, binding affinity with N343A
  Kd: 14.5 mM
